The values that follow come from patent US20210378995A1, “METHODS AND TOPICAL PHARMACEUTICAL COMPOSITIONS FOR THE TREATMENT OF SKIN MICROVASCULAR DYSFUNCTION” (INSERM (INSTITUT NATIONAL DE LA SANTÉ ET DE LA RECHERCHE …, priority 2018, published 2021).

The nature of series [1]: Percutaneous passage of GSK2256294 topical formulations in Franz's cells on pig ear skin (Example 5). The class given is in vitro ADME. As to the method:
First GSK2256294 topical formulations used DMSO and water 50/50% as vehicle. The experiments were conducted with Franz's cell using the skin of a pig's ear. The donor compartment was filled by an 20 μL of solution with a concentration between 100 to 400 μg/g of GSK2256294. The receptor medium was constituted by 4.5 mL of PBS, was at 32° C. and under magnetic stirring. Samples from the receptor compartment were collected at different times over 24 hours to determine the passage flow of GSK2256294. Second GSK2256294 topical formulation using alcohol, isopropanol, propylene glycol and DMSO 50/50% as vehicle with a GSK2256294's concentration at 200 μg/g were tested in the same conditions. Samples were then frozen at −20° C. The […] quantification was realized by HPLC/MS/MSS.

Series [2] can be described thus: Solubility in paraffin wax vehicle. As to conditions: paraffin wax vehicle could not be used. It is filed as physicochemical.
Series [3] in a line: Percutaneous absorption using Franz's cells on pigskin, influence of the solvent (Example 1).
Protocol: The skin of a pig's ears was chosen for the experiments as it is very similar to that of a human skin. […] The receptor compartment contained 4.5 mL of PBS and was under magnetic stirring. […] Samples were frozen at −20° C.
[4] abbreviates: GSK2256294 4 μg/mL, vehicle DMSO/water 50%/50%.
Setting [5] is: GSK2256294 40 μg/mL, 'with DMSO'.
The mark [6] stands for this setting: GSK2256294 40 μg/mL, vehicle DMSO/water 50%/50%.
Where [7] appears, read: GSK2256294, vehicle water at pH3.
Setting [8] is: GSK2256294, vehicle water at pH3/alcohol 50/50%.

Turning to `CNc1nc(C)nc(N[C@H]2CCC[C@@H](C(=O)NCc3ccc(C#N)cc3C(F)(F)F)C2)n1` [GSK2256294, (1R,3S)—N-[[4-cyano-2-(trifluoromethyl)phenyl]methyl]-3-[[4-methyl-6-(methylamino)-1,3,5-triazin-2-yl]amino]cyclohexane-1-carboxamide], the “flow between 4 and 12 h” value in series [1] (DMSO/water 50/50%, GSK2256294 200 μg/g) came to 64.83 ng/h/cm^2; in series [1] (DMSO/water 50/50%, lower end of GSK2256294 concentration range 100 to 400 μg/g), 41.92 ng/h/cm^2; in series [1] (DMSO/water 50/50%, upper end of GSK2256294 concentration range 100 to 400 μg/g), 102.26 ng/h/cm^2; in series [1] (alcohol/water 50/50%, GSK2256294 200 μg/g) it was 55.9 ng/h/cm^2; in series [1] (isopropanol/water 50/50%, GSK2256294 200 μg/g), 74.38 ng/h/cm^2; in series [1] (propylene glycol/water 50/50%, GSK2256294 200 μg/g), 48.49 ng/h/cm^2. In addition, in series [2], the “solubility in paraffin wax” value is reported as “lack of solubility”. The “absorbed and released by the pigskin over 24 hrs” value came to 10.5% in series [3] (setting [4]) and 9.02% in series [3] (setting [6]). Further, the percutaneous absorption flow in series [3] (setting [4]) is listed as 21.9 ng/cm^2/h; in series [3] (setting [5]) it was 134.1 ng/cm^2/h; in series [3] (setting [6]) it was 167.4 ng/cm^2/h; in series [3] (GSK2256294, vehicle PEG400), “No flow”; in series [3] (setting [7]) it was 167.4 ng/cm^2/h; in series [3] (setting [8]), 38.6 ng/cm^2/h. Also, the figures for the passage rate in series [3] (setting [5]), in series [3] (setting [7]) and in series [3] (setting [8]) were 7.04%, 8.31% and 3.52%, respectively.
